Measurements taken from ChEMBL document CHEMBL4371076 (J Med Chem, 2019).

Tests used:
[1] = target: T1, Sodium channel protein type 9 subunit alpha (Homo sapiens, UniProt Q15858); assay: Inhibition of human Nav1.7 expressed in HEK293 cells after 600 secs at -60 mV holding potential by ion works barracuda population patch clamp method; type: cell-based
[2] = target: T1, Sodium channel protein type 9 subunit alpha; assay: Inhibition of recombinant human Nav1.7 expressed in HEK293 cells at -70 mV holding potential by patch clamp electrophysiology method; type: cell-based
[3] = Metabolic stability in human liver microsomes assessed as parent compound remaining at 0.5 uM after 10 mins; type: ADME, Microsome; conditions: read-out: Stability
[4] = Metabolic stability in rat liver microsomes assessed as parent compound remaining at 0.5 uM after 10 mins; type: ADME, Microsome; conditions: read-out: Stability
[5] = Metabolic stability in mouse liver microsomes assessed as parent compound remaining at 0.5 uM after 10 mins; type: ADME, Microsome; conditions: read-out: Stability
[6] = Fraction unbound in human plasma; type: ADME, cell-free
[7] = Fraction unbound in mouse plasma; type: ADME, cell-free
[8] = Permeability of the compound at pH 7.4 by PAMPA; type: ADME; conditions: read-out: permeability
[9] = Permeability from apical to basolateral side in human Caco2 cells; type: ADME, cell-based; conditions: Caco-2, read-out: permeability
[10] = Permeability from basolateral to apical side in human Caco2 cells; type: ADME, cell-based; conditions: Caco-2, read-out: permeability
[11] = Efflux ratio of permeability in human Caco2 cells; type: ADME, cell-based; conditions: Caco-2
Cytochrome P450 2B6 [12] = target: T2, Cytochrome P450 2B6 (Homo sapiens, UniProt P20813); assay: Inhibition of CYP2B6 in human liver microsomes; type: ADME; conditions: human, microsomes
T2 sequence (P20813 whole entry): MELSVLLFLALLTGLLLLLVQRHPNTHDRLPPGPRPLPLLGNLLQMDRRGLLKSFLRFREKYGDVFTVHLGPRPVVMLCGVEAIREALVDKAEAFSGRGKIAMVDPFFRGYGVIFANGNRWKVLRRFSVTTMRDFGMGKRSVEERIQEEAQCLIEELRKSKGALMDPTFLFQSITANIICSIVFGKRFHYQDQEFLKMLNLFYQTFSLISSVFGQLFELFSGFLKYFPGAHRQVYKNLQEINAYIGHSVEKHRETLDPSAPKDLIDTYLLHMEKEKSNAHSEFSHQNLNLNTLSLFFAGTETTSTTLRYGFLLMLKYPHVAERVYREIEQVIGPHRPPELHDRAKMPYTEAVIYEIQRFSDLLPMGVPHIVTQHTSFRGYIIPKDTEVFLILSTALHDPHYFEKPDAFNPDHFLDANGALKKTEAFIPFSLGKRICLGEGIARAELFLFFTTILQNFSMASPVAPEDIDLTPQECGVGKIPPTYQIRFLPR

Cytochrome P450 2C8 [13] = target: T3, Cytochrome P450 2C8 (Homo sapiens, UniProt P10632); assay: Inhibition of CYP2C8 in human liver microsomes; type: ADME; conditions: human, microsomes
T3 sequence (P10632 whole entry): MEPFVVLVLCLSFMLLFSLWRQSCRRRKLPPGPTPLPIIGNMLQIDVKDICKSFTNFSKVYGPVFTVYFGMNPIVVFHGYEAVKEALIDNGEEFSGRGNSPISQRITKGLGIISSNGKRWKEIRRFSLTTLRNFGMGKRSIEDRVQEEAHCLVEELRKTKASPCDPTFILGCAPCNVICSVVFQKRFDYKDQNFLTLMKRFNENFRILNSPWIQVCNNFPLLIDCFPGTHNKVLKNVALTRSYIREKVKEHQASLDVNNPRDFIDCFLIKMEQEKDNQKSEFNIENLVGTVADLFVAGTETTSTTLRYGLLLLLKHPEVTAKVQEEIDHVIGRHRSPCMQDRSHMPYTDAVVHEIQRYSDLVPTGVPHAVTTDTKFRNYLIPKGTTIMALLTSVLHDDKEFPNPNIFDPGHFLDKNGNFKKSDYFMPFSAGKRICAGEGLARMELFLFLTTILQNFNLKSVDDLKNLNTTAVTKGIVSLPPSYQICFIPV

Cytochrome P450 2C9 [14] = target: T4, Cytochrome P450 2C9 (Homo sapiens, UniProt P11712); assay: Inhibition of CYP2C9 in human liver microsomes; type: ADME; conditions: human, microsomes
T4 sequence (P11712 whole entry): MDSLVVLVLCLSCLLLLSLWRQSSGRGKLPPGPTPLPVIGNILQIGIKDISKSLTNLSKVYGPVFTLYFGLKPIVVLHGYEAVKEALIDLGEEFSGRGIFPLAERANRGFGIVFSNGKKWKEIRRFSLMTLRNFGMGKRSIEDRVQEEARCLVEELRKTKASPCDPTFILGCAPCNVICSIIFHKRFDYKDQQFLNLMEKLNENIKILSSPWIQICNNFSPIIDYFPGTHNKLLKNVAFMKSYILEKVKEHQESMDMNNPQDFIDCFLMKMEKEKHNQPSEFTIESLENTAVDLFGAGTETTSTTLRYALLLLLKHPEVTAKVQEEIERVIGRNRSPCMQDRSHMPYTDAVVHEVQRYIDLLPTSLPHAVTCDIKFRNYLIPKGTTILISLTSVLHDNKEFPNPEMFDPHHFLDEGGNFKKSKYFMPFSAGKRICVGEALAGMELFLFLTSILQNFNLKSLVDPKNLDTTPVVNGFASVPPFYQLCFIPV

Cytochrome P450 2C19 [15] = target: T5, Cytochrome P450 2C19 (Homo sapiens, UniProt P33261); assay: Inhibition of CYP2C19 in human liver microsomes; type: ADME; conditions: human, microsomes
T5 sequence (P33261 whole entry): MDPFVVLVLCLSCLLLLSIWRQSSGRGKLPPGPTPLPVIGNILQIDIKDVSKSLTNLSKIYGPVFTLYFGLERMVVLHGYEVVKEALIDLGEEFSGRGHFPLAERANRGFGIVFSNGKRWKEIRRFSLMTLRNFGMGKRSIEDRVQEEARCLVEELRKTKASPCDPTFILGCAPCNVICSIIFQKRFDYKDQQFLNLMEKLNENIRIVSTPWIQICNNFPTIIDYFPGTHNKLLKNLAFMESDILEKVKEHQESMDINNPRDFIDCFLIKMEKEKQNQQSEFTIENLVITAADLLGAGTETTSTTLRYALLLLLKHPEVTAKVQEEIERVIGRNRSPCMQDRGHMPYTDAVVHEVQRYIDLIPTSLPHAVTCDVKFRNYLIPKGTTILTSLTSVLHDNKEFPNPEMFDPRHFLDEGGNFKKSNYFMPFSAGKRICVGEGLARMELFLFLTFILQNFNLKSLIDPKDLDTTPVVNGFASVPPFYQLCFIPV

Cytochrome P450 2D6 [16] = target: T6, Cytochrome P450 2D6 (Homo sapiens, UniProt P10635); assay: Inhibition of CYP2D6 in human liver microsomes; type: ADME; conditions: human, microsomes
T6 sequence (P10635 whole entry): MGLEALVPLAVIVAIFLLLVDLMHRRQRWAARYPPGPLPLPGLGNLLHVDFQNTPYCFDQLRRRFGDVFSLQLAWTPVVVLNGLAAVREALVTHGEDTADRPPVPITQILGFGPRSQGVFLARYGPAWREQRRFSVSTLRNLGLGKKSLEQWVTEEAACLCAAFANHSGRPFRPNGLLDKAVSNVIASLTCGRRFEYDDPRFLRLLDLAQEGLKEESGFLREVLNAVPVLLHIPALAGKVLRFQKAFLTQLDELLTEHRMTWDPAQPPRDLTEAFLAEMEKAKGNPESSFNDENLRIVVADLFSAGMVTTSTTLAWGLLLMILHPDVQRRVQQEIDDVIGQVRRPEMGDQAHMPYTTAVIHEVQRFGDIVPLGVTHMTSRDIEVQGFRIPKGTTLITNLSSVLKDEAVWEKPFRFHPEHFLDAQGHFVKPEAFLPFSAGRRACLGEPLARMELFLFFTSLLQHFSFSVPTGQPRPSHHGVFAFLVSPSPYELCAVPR

Cytochrome P450 3A4 [17] = target: T7, Cytochrome P450 3A4 (Homo sapiens, UniProt P08684); assay: Inhibition of CYP3A4 in human liver microsomes; type: ADME; conditions: human, microsomes
T7 sequence (P08684 whole entry): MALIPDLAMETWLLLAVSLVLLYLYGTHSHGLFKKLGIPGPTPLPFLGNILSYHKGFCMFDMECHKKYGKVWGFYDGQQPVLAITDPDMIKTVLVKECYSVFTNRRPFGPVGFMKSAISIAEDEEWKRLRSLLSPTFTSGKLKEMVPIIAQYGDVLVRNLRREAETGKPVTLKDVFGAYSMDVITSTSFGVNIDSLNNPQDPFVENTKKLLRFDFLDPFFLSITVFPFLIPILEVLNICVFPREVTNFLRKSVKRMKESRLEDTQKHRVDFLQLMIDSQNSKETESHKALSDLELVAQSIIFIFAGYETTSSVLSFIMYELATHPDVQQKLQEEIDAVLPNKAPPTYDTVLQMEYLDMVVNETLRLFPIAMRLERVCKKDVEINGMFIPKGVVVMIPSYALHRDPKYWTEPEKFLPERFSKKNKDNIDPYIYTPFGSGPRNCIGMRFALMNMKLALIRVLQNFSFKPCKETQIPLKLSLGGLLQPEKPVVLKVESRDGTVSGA

Cytochrome P450 2B6 [18] = target: T2, Cytochrome P450 2B6; assay: Time-dependant inhibition of CYP2B6 in human liver microsomes; type: ADME
Cytochrome P450 2C8 [19] = target: T3, Cytochrome P450 2C8; assay: Time-dependant inhibition of CYP2C8 in human liver microsomes; type: ADME
Cytochrome P450 2C9 [20] = target: T4, Cytochrome P450 2C9; assay: Time-dependant inhibition of CYP2C9 in human liver microsomes; type: ADME
Cytochrome P450 2C19 [21] = target: T5, Cytochrome P450 2C19; assay: Time-dependant inhibition of CYP2C19 in human liver microsomes; type: ADME
Cytochrome P450 2D6 [22] = target: T6, Cytochrome P450 2D6; assay: Time-dependant inhibition of CYP2D6 in human liver microsomes; type: ADME
Cytochrome P450 3A4 [23] = target: T7, Cytochrome P450 3A4; assay: Time-dependant inhibition of CYP3A4 in human liver microsomes; type: ADME
[24] = target: Sodium channel protein type 5 subunit alpha (Homo sapiens, UniProt Q14524); assay: Inhibition of human Nav1.5 expressed in HEK293 cells after 600 secs at -50 mV holding potential by ion works barracuda population patch clamp method; type: cell-based
Sodium channel protein type 5 subunit alpha, sequence (Q14524 whole entry): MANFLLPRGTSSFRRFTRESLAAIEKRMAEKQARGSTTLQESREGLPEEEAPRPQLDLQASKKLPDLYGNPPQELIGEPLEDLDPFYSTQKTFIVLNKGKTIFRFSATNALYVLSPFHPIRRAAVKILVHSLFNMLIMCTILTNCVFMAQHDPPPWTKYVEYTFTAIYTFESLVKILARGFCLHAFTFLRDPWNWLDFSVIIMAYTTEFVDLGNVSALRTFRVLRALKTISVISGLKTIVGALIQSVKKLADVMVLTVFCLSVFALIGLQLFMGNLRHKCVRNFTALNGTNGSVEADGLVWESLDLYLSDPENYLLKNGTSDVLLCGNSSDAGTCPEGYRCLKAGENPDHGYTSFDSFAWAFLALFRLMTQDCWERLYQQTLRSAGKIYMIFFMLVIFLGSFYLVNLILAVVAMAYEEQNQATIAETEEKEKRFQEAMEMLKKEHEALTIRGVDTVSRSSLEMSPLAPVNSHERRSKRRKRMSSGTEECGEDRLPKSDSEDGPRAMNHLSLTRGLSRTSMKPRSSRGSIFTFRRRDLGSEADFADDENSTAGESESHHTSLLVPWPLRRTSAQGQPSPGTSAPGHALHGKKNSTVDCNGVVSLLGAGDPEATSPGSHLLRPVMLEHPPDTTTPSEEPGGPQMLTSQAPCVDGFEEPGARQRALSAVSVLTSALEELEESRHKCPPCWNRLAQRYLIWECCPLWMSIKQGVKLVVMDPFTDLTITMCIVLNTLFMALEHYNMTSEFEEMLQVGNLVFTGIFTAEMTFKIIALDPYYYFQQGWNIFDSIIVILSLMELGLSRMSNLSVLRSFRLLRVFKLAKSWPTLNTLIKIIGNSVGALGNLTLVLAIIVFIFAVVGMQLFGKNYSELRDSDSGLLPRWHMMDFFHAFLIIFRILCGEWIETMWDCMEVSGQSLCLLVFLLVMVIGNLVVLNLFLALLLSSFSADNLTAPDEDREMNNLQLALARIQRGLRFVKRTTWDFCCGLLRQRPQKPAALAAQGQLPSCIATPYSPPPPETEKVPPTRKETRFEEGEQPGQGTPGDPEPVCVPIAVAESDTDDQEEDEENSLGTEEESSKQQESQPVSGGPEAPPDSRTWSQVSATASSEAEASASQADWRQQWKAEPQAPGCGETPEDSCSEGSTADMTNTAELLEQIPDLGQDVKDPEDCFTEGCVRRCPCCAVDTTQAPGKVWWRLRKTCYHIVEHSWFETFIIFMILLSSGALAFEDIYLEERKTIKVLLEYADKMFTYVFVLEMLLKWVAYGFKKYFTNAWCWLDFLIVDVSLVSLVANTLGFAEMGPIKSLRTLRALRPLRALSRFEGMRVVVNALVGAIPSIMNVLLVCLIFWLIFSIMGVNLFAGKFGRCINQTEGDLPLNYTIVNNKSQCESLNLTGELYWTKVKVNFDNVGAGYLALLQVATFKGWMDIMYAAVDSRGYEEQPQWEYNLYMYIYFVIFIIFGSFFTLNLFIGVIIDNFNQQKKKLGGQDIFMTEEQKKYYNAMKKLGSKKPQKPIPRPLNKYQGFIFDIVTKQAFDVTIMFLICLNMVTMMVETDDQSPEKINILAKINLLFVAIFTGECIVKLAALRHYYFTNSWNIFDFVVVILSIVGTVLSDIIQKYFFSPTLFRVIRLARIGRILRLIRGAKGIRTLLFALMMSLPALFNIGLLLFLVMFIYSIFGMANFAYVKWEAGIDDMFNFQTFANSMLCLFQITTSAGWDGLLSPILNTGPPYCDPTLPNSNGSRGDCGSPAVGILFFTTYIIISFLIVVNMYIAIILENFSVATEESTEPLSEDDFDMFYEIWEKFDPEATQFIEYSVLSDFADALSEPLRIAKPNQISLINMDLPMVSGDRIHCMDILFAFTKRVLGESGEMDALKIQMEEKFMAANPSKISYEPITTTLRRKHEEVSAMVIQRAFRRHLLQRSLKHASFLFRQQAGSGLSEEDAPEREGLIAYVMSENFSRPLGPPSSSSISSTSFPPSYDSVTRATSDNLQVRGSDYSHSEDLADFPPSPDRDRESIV

[25] = Permeability of the compound at pH 5.5 by PAMPA; type: ADME; conditions: read-out: permeability

SMILES	IC50 [2] [nM]	remaining at 10 min, 0.5 µM [3] [%]	remaining at 10 min, 0.5 µM [4] [%]	remaining at 10 min, 0.5 µM [5] [%]	fraction unbound [6]	fraction unbound [7]	Papp [8] [×10⁻⁶ cm/s]	Papp A→B [9] [×10⁻⁶ cm/s]	inhibition (INH) (Cytochrome P450 2B6 [12])	inhibition (INH) (Cytochrome P450 2C8 [13])	inhibition (INH) (Cytochrome P450 2C9 [14])	inhibition (INH) (Cytochrome P450 2C19 [15])	inhibition (INH) (Cytochrome P450 2D6 [16])	inhibition (INH) (Cytochrome P450 3A4 [17])	TDI (Cytochrome P450 2B6 [18])	TDI (Cytochrome P450 2C8 [19])	TDI (Cytochrome P450 2C9 [20])	TDI (Cytochrome P450 2C19 [21])	TDI (Cytochrome P450 2D6 [22])	TDI (Cytochrome P450 3A4 [23])	further results
Cn1cc(-c2cnc(OCC3CC3)c(Cl)c2)c2ccc(C(=O)NS(=O)(=O)C3CC3)cc21	27	97	77	93	< 0.001	0.002	39.1	< 1.5	Not Active	Not Active	Not Active	Not Active	Not Active	Not Active	Not Active	Not Active	Not Active	Not Active	Not Active	Not Active	IC50 [1]: 82 nM; Papp B→A [10]: 11.4 ×10⁻⁶ cm/s; efflux ratio [11]: > 7.6
CC(C)COc1ccc(-c2nn(C)c3cc(C(=O)NS(=O)(=O)C4CC4)c(F)cc23)cn1	43	91	88	92		0.011	10		Not Active	Not Active	Not Active	Not Active	Not Active	Not Active	Not Active	Not Active	Not Active	Not Active	Not Active	Not Active	IC50 [1]: 45 nM; IC50 [24]: 11000 nM; Papp [25]: 76.2 ×10⁻⁶ cm/s
CC(C)COc1ncc(-c2cn(C)c3cc(C(=O)NS(C)(=O)=O)c(F)cc23)cc1Cl	1.1	100	85	100	0.001	0.002	20.5	2	Not Active	Not Active	Not Active	Not Active	Not Active	Not Active	Not Active	Not Active	Not Active	Not Active	Not Active	Not Active	Papp [25]: 49.5 ×10⁻⁶ cm/s; Papp B→A [10]: 6.7 ×10⁻⁶ cm/s; efflux ratio [11]: 3.4
Cn1nc(-c2ccc(C(F)(F)F)cc2)c2cc(F)c(C(=O)NS(=O)(=O)C3CC3)cc21	21	100	100	100		0.008	10.2	< 1.5	Not Active	Not Active	Not Active	Not Active	Not Active	Not Active	Not Active	Not Active	Not Active	Not Active	Not Active	Not Active	IC50 [1]: 13 nM; IC50 [24]: 6400 nM; Papp [25]: 59.2 ×10⁻⁶ cm/s; Papp B→A [10]: 31.2 ×10⁻⁶ cm/s; efflux ratio [11]: > 21
CC(C)Cc1ccc(-c2cn(C)c3cc(C(=O)NS(C)(=O)=O)ccc23)cc1	23	100	94	100	0.001	0.003		< 1.5	Not Active	Not Active	Not Active	Not Active	Not Active	Not Active	Not Active	Not Active	Not Active	Not Active	Not Active	Not Active	IC50 [24]: > 30000 nM; Papp B→A [10]: 7.8 ×10⁻⁶ cm/s; efflux ratio [11]: > 6.2

More lines, main results first:

IC50 [2] [nM]	remaining at 10 min, 0.5 µM [3] [%]	remaining at 10 min, 0.5 µM [4] [%]	remaining at 10 min, 0.5 µM [5] [%]	fraction unbound [6]	fraction unbound [7]	Papp [8] [×10⁻⁶ cm/s]	Papp A→B [9] [×10⁻⁶ cm/s]	inhibition (INH) (Cytochrome P450 2B6 [12])	inhibition (INH) (Cytochrome P450 2C8 [13])	inhibition (INH) (Cytochrome P450 2C9 [14])	inhibition (INH) (Cytochrome P450 2C19 [15])	inhibition (INH) (Cytochrome P450 2D6 [16])	inhibition (INH) (Cytochrome P450 3A4 [17])	TDI (Cytochrome P450 2B6 [18])	TDI (Cytochrome P450 2C8 [19])	TDI (Cytochrome P450 2C9 [20])	TDI (Cytochrome P450 2C19 [21])	TDI (Cytochrome P450 2D6 [22])	TDI (Cytochrome P450 3A4 [23])	SMILES	further results
13	97	99	95	0.002	0.005	14	2	Not Active	Not Active	Not Active	Not Active	Not Active	Not Active	Not Active	Not Active	Not Active	Not Active	Not Active	Not Active	Cn1cc(-c2ccc(C(F)(F)F)cc2)c2cc(F)c(C(=O)NS(C)(=O)=O)cc21	Papp [25]: 71.2 ×10⁻⁶ cm/s; Papp B→A [10]: 12.5 ×10⁻⁶ cm/s; efflux ratio [11]: 6.1
8	87	92	87	0.002	0.004	13.5		Not Active	Not Active	Not Active	Not Active	Not Active	Not Active	Not Active	Not Active	Not Active	Not Active	Not Active	Not Active	Cn1cc(-c2ccc(C(F)(F)F)cc2)c2ccc(C(=O)NS(=O)(=O)C3CC3)cc21	IC50 [1]: 104 nM; IC50 [24]: 8400 nM; Papp [25]: 52.5 ×10⁻⁶ cm/s
96	100	74	54	< 0.001	< 0.001	17.1	< 1.5	Not Active	Not Active	Not Active	Not Active	Not Active	Not Active	Not Active	Not Active	Not Active	Not Active	Not Active	Not Active	Cn1cc(-c2ccc(C(F)(F)F)cc2)c2ccc(C(=O)NS(C)(=O)=O)cc21	IC50 [1]: 88 nM; Papp [25]: 97.2 ×10⁻⁶ cm/s; Papp B→A [10]: 7.6 ×10⁻⁶ cm/s; efflux ratio [11]: > 5.1
